{"source": "patent US10196393B2", "about": "“JAK inhibitors containing a 4-membered heterocyclic amide” (THERAVANCE BIOPHARMA R&D IP, LLC, priority 2017, dated 2019)", "key": {"[1]": {"molecular_target": "JAK1 (Homo sapiens (Human), UniProt P23458)", "sequence (P23458 whole entry)": "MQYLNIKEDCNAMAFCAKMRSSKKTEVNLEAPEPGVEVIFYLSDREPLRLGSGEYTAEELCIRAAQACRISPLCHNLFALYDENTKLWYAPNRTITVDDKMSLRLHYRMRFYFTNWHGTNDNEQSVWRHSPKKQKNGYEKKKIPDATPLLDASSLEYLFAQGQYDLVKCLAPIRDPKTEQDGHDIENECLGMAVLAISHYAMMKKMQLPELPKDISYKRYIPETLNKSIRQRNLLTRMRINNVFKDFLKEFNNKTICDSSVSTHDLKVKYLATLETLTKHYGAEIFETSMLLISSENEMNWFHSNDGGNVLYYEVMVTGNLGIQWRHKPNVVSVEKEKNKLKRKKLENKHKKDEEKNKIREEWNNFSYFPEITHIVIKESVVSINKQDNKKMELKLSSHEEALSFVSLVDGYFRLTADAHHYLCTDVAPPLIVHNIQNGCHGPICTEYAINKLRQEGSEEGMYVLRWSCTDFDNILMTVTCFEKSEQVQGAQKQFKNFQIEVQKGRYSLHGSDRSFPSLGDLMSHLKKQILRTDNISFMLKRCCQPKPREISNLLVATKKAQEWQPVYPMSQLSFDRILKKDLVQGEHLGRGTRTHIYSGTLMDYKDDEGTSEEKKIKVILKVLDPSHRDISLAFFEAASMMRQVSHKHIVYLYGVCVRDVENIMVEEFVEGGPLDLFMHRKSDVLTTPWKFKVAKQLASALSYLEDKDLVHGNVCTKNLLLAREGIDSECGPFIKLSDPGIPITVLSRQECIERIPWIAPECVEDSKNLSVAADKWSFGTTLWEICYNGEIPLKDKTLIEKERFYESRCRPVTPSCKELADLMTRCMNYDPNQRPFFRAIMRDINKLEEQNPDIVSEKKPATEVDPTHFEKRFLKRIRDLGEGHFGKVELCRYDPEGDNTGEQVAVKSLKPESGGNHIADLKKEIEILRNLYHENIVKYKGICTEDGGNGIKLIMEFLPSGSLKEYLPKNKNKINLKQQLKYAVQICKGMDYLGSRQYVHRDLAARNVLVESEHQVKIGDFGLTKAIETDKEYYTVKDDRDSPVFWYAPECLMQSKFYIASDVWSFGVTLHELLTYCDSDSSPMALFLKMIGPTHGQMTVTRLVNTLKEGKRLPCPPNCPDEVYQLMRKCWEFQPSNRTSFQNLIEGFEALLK", "assay": "Biochemical JAK kinase assay (LanthaScreen), JAK1", "settings": "converted from pIC50 with Cheng-Prusoff equation", "protocol": "(§1) Assay 1: Biochemical JAK Kinase Assays\n(§2) A panel of four LanthaScreen JAK biochemical assays (JAK1, 2, 3 and Tyk2) were carried in a common kinase reaction buffer (50 mM HEPES, pH 7.5, 0.01% Brij-35, 10 mM MgCl2, and 1 mM EGTA). Recombinant GST-tagged JAK enzymes and a GFP-tagged STAT1 peptide substrate were obtained from Life Technologies.\n(§3) Serially diluted compounds were pre-incubated with each of the four JAK enzymes and the substrate in white 384-well microplates (Corning) at ambient temperature for 1 h. ATP was subsequently added to initiate the kinase reactions in 10 μL total volume, with 1% DMSO. […] The plates were allowed to incubate at ambient temperature for 1 h before being read on the EnVision reader (Perkin Elmer).\n(§4) For dose-response analysis, percent inhibition data were plotted vs. compound concentrations, and IC50 values were determined from a 4-parameter robust fit model with the Prism software (GraphPad Software). Results were expressed as pIC50 (negative logarithm of IC50) and subsequently converted to pKi (negative logarithm of dissociation constant, Ki) using the Cheng-Prusoff equation."}, "[2]": {"molecular_target": "JAK3 (Homo sapiens (Human), UniProt P52333)", "sequence (P52333 whole entry)": "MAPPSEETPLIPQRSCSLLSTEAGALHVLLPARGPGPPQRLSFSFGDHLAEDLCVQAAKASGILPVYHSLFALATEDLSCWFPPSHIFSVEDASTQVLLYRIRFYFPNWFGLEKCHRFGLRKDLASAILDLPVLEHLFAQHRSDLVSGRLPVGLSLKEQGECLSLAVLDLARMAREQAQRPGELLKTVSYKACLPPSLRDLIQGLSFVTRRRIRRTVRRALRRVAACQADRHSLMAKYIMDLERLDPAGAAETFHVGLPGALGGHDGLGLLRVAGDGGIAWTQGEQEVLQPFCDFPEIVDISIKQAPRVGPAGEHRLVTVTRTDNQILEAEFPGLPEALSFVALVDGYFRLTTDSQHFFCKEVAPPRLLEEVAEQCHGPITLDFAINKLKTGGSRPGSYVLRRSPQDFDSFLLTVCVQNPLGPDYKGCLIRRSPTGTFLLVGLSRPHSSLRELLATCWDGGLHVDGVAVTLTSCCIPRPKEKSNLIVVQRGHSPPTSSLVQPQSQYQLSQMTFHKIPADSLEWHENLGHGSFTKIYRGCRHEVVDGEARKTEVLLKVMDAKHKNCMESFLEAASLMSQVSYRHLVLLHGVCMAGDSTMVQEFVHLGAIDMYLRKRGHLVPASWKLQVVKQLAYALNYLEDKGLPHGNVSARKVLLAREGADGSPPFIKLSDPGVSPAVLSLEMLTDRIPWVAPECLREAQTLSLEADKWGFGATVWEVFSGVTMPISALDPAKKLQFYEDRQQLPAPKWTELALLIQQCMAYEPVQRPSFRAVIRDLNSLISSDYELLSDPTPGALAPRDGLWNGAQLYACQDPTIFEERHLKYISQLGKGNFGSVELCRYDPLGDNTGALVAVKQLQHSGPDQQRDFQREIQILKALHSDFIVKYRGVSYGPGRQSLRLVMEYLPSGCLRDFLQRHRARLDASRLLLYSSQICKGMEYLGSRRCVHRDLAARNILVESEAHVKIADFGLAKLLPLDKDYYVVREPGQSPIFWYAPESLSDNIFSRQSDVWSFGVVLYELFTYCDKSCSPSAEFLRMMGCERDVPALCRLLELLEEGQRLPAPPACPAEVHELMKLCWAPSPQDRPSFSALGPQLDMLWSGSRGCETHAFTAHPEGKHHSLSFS", "assay": "Biochemical JAK kinase assay (LanthaScreen), JAK3", "settings": "converted from pIC50 with Cheng-Prusoff equation", "protocol": "as §1, §2, §3, §4"}, "[3]": {"system": "IL-13 induced STAT6 phosphorylation in BEAS-2B human lung epithelial cells", "assay": "Cellular JAKI potency assay (AlphaScreen), BEAS-2B", "format": "cell-based", "settings": "Homo sapiens, BEAS-2B cells", "protocol": "Assay 2: Cellular JAKI Potency Assay\nThe AlphaScreen JAKI cellular potency assay was carried out by measuring interleukin-13 (IL-13, R&D Systems) induced STAT6 phosphorylation in BEAS-2B human lung epithelial cells (ATCC). The anti-STAT6 antibody (Cell Signaling Technologies) was conjugated to AlphaScreen acceptor beads (Perkin Elmer), while the anti-pSTAT6 (pTyr641) antibody (Cell Signaling Technologies) was biotinylated using EZ-Link Sulfo-NHS-Biotin (Thermo Scientific).\nBEAS-2B cells were grown at 37° C. in a 5% CO2 humidified incubator in 50% DMEM/50% F-12 medium (Life Technologies) supplemented with 10% FBS (Hyclone), 100 U/mL penicillin, 100 μg/mL streptomycin (Life Technologies), and 2 mM GlutaMAX (Life Technologies). On day 1 of the assay, cells were seeded at a 7,500 cells/well density in white poly-D-lysine-coated 384-well plates (Corning) with 25 μL medium, and were allowed to adhere overnight in the incubator. On day 2 of the assay, the medium was removed and replaced with 12 μL of assay buffer (Hank's Balanced Salt Solution/HBSS, 25 mM HEPES, and 1 mg/ml bovine serum albumin/BSA) containing dose-responses of test compounds. Compounds were serially diluted in DMSO and then diluted another 1000-fold in media to bring the final DMSO concentration to 0.1%. Cells were incubated with test compounds at 37° C. for 1 h, and followed by the addition of 12 μl of pre-warmed IL-13 (80 ng/mL in assay buffer) for stimulation. After incubating at 37° C. for 30 min, the assay buffer (containing compound and IL-13) was removed, and 10 μL of cell lysis buffer (25 mM HEPES, 0.1% SDS, 1% NP-40, 5 mM MgCl2, 1.3 mM EDTA, 1 mM EGTA, and supplement with Complete Ultra mini protease inhibitors and PhosSTOP from Roche Diagnostics). The plates were shaken at ambient temperature for 30 min before the addition of detection reagents. A mixture of biotin-anti-pSTAT6 and anti-STAT6 conjugated acceptor beads was added first and incubated at ambient temperature for 2 h, followed by the addition of streptavidin conjugated donor beads (Perkin Elmer). After a minimum of 2 h incubation, the assay plates were read on the EnVision plate reader. AlphaScreen luminescence signals were recorded and utilized to calculate the percent inhibition values based on DMSO and background controls.\nFor dose-response analysis, percent inhibition data were plotted vs. compound concentrations, and IC50 values were determined from a 4-parameter robust fit model with the Prism software. Results may also be expressed as the negative logarithm of the IC50 value, pIC50.\nTest compounds having a lower IC50 value or higher pIC50 value in this assay show greater inhibition of IL-13 induced STAT6 phosphorylation."}, "[4]": {"system": "IL-13 induced pSTAT6 induction in lung tissue", "assay": "Murine model of IL-13 induced pSTAT6 induction in lung tissue", "format": "in vivo", "settings": "mouse lung, 1 mg/mL 50 μL oral aspiration, IL-13 challenge 4 h after dose, lungs at 5 hours", "excerpt": "Assay 4: Murine (Mouse) Model of IL-13 Induced pSTAT6 Induction in Lung Tissue\nIl-13 is an important cytokine underlying the pathophysiology of asthma (Kudlacz et al. Eur. J. Pharmacol, 2008, 582,154-161). IL-13 binds to cell surface receptors activating members of the Janus family of kinases (JAK) which then phosphorylate STAT6 and subsequently activates further transcription pathways. In the described model, a dose of IL-13 was delivered locally into the lungs of mice to induce the phosphorylation of STAT6 (pSTAT6) which is then measured as the endpoint.\nAdult balb/c mice from Harlan were used in the assay. On the day of study, animals were lightly anesthetized with isoflurane and administered either vehicle or test compound (1 mg/mL, 50 μL total volume over several breaths) via oral aspiration. Animals were placed in lateral recumbency post dose and monitored for full recovery from anesthesia before being returned to their home cage. Four hours later, animals were once again briefly anesthetized and challenged with either vehicle or IL-13 (0.03 μg total dose delivered, 50 μL total volume) via oral aspiration before being monitored for recovery from anesthesia and returned to their home cage. One hour after vehicle or IL-13 administration, lungs were collected for both pSTAT6 detection using an anti-pSTAT6 ELISA (rabbit mAb capture/coating antibody; mouse mAb detection/report antibody: anti-pSTAT6-pY641; secondary antibody: anti-mouse IgG-HRP) and analyzed for total drug concentration as described above in Assay 3.\nSelected compounds of the invention were tested in the assay. Activity in the model is evidenced by a decrease in the level of pSTAT6 present in the lungs of treated animals at 5 hours compared to the vehicle treated, IL-13 challenged control animals. The difference between the control animals which were vehicle-treated, IL-13 challenged and the control animals which were vehicle-treated, vehicle challenged dictated the 0% and 100% inhibitory effect, respectively, in any given experiment."}, "[5]": {"system": "Alternaria alternata-induced eosinophilic inflammation of the lung (BALF eosinophils)", "assay": "Murine model of Alternaria alternata-induced eosinophilic inflammation of the lung", "format": "in vivo", "settings": "mouse, oropharyngeal aspiration 0.03-1.0 mg/mL, BALF 48 h after challenge; maximum statistically significant inhibition", "excerpt": "Assay 5: Murine Model of Alternaria alternata-Induced Eosinophilic Inflammation of the Lung\nAirway eosinophilia is a hallmark of human asthma. Alternaria alternata is a fungal aeroallergen that can exacerbate asthma in humans and induces eosinophilic inflammation in the lungs of mice (Havaux et al. Clin Exp Immunol. 2005 February; 139(2):179-88).\nSeven- to nine-week old male C57 mice from Taconic were used in the study. On the day of study, animals were lightly anesthetized with isoflurane and administered either vehicle or test compound (0.03-1.0 mg/mL, 50 μL total volume over several breaths) via oropharyngeal aspiration. Animals were placed in lateral recumbency post dose and monitored for full recovery from anesthesia before being returned to their home cage. One hour later, animals were once again briefly anesthetized and challenged with either vehicle or alternaria extract (200 ug total extract delivered, 50 μL total volume) via oropharyngeal aspiration before being monitored for recovery from anesthesia and returned to their home cage. Forty-eight hours after alternaria administration, bronchoalveolar lavage fluid (BALF) was collected and eosinophils were counted in the BALF using the Advia 120 Hematology System (Siemens). […]"}, "[6]": {"assay": "Pharmacokinetics in plasma and lung in mouse", "settings": "oral aspiration, 0.2 mg/mL 50 μL, lung AUC (μg hr/g) / plasma AUC (μg hr/mL)"}}, "data": [{"compound": "CCCN1Cc2[nH]c(-c3n[nH]c4cc(-c5cc(F)c(O)cc5CC)ccc34)nc2C[C@H]1C(=O)N1CC(N(C)C)C1", "note": "[Example 4, (S)-(3-(dimethylamino)azetidin-1-yl)(2-(6-(2-ethyl-5-fluoro-4-hydroxyphenyl)-1H-indazol-3-yl)-5-propyl-4,5,6,7-tetrahydro-3H-imidazo[4,5-c]pyridin-6-yl)methanone]", "values": [{"measurement": "Ki", "setting": "[1]", "result": 0.06, "unit": "nM"}, {"measurement": "Ki", "setting": "[2]", "result": 0.13, "unit": "nM"}, {"measurement": "IC50", "setting": "[3]", "result": 7.4, "unit": "nM"}, {"measurement": "pSTAT6 inhibition Assay 4", "setting": "[4]", "result": "A (A represents between 60% and 80% inhibition)"}, {"measurement": "Percent Inhibition of Alternaria-induced BALF Eosinophils", "setting": "[5]", "result": 79, "unit": "%"}, {"measurement": "Lung to Plasma ratio Assay 3", "setting": "[6]", "result": "C (C denotes a ratio between 20 and 50)"}]}]}
